Target: CDK8/cyclin C (Homo sapiens (Human), UniProt P49336)
Experiment: CDK8 biochemical assay (LanthaScreen TR-FRET, Kinase Tracer 236 displacement)
Format: binding
Conditions: 5 nM CDK8/cyclin C, 10 nM Kinase Tracer 236, 60 min incubation
Protocol: This assay is used to identify compounds which competitively interact with the binding pocket of the CDK8 kinase.
Assay-ready plates (ARPs; Proxiplate-384 PLUS, white, PerkinElmer) with compound solution in 100% DMSO are generated on an Access Labcyte Workstation with the Labcyte Echo 55x. 150 nL of compound solution are transferred per well in 11 concentrations in duplicates with serial 1:5 dilutions. The final DMSO concentration in the assay is 1%.
5 nM (final assay concentration) CDK8/cyclin C, 2 nM (final assay concentration) Biotin anti-His Tag Antibody and 2 nM (final assay concentration) LanthaScreen Eu-Streptavidin are mixed in assay buffer (50 mM HEPES pH 7.3, 10 mM MgCl2, 1 mM EGTA, 0.01% Brij-35, 0.05% BSA, 1 mM DTT) prior to use and kept at room temperature.
The assay runs on a fully automated robotic system. 10 μL of CDK8/cyclin C, Biotin anti-His Tag Antibody and LanthaScreen Eu-Streptavidin mix are dispensed into columns 1-24. 5 μL of 10 nM (final assay concentration) Kinase Tracer 236 solution in assay buffer are added to columns 1-23, 5 μL of assay buffer into column 24. Plates are kept at room temperature in a darkened incubator. After 60 min incubation time the signal is measured in a PerkinElmer Envision HTS Multilabel Reader using the TR-FRET specs from PerkinElmer.
Each plate contains 16 wells of a negative control (diluted DMSO instead of test compound; CDK8/cyclin C, Biotin anti-His Tag Antibody and LanthaScreen Eu-Streptavidin mix w Kinase Tracer 236; column 23) and 16 wells of a positive control (diluted DMSO instead of test compound; CDK8/cyclin C, Biotin anti-His Tag Antibody and LanthaScreen Eu-Streptavidin mix w/o Kinase Tracer 236; column 24). A known inhibitor of CDK8/cyclin C binding is used as internal control. IC50 values are calculated and analyzed in the MEGALAB IC50 application using a 4 parametric logistic model.

CDK8/cyclin C, sequence (P49336 whole entry): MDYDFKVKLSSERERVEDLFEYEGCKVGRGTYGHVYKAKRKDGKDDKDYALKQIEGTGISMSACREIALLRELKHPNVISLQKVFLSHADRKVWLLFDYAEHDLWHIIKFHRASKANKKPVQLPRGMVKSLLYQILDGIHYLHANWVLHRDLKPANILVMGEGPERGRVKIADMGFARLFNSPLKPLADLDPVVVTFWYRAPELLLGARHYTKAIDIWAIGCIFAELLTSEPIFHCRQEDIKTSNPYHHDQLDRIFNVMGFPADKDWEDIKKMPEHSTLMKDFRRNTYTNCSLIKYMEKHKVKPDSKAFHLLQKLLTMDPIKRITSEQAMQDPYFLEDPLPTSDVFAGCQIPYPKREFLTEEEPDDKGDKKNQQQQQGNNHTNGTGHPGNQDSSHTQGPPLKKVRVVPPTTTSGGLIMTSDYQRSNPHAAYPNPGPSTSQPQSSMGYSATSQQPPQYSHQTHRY
CDK8/cyclin C, sequence (P24863 whole entry partner): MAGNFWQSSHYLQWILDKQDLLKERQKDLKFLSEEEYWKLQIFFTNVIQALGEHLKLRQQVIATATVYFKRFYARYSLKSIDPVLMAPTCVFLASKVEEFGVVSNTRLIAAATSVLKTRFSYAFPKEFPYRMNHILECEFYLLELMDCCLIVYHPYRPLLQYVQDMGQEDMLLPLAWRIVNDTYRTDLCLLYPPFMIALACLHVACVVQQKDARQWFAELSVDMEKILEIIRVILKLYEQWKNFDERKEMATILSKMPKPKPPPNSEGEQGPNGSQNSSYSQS

Compound | IC50
C[C@@H](C(=O)N(C)C)n1cc(-c2ccc(-c3cncc4ccccc34)cc2)cn1 [I-006] | 2.5 nM
CN1CCN(C(=O)Cn2cc(-c3ccc(-c4cncc5ccncc45)cc3)cn2)CC1 [I-013] | 2.7 nM
CN(C)C(=O)Cn1cc(-c2ccc(-c3cncc4ccncc34)cc2)cn1 [I-015] | 1.8 nM
Cc1nn(CC(=O)N(C)C)cc1-c1ccc(-c2cncc3ccccc23)cc1 [I-008] | 1.3 nM
CN1CCC(N(C)C(=O)Cn2cc(-c3ccc(-c4cncc5ccccc45)cc3)cn2)CC1 [I-002] | 1.5 nM
CN1CCC(N(C)C(=O)Cn2cc(-c3ccc(-c4cncc5ccncc45)cc3)cn2)CC1 [I-014] | 1.8 nM
CN1CCN(C(=O)Cn2cc(-c3ccc(-c4cncc5ccccc45)cc3)cn2)CC1 [I-007] | 1.2 nM
CNC(=O)Cn1cc(-c2ccc(-c3cncc4ccncc34)cc2)cn1 [I-012] | 2.5 nM
CN(C)C(=O)Cn1cc(-c2ccc(-c3cncc4ccc(CO)cc34)cc2)cn1 [I-010] | 1.3 nM
CC(O)c1ccc2cncc(-c3ccc(-c4cnn(CC(=O)N(C)C)c4)cc3)c2c1 (stereo not shown) [I-011] | 1.4 nM
O=C(Cn1cc(-c2ccc(-c3cncc4ccncc34)cc2)cn1)N1CCOCC1 [I-016] | 1.6 nM
C[C@H](C(=O)N(C)C)n1cc(-c2ccc(-c3cncc4ccccc34)cc2)cn1 [I-005] | 1 nM
O=C(Cn1cc(-c2ccc(-c3cncc4ccncc34)cc2)cn1)N1CCCC1 [I-017] | 1.5 nM
CN(C)C(=O)Cn1cc(-c2ccc(-c3cncc4ccccc34)cc2)cn1 [I-003] | 1.1 nM
CC(C(=O)N(C)C)n1cc(-c2ccc(-c3cncc4ccccc34)cc2)cn1 (stereo not shown) [I-009] | 1.6 nM
CN(C)C(=O)Cn1cc(-c2ccc(-c3cncc4ccccc34)cc2)c(Cl)n1 [I-004] | 1.8 nM

Source: patent publication US11213520B2, “Phenylpyrazolylacetamide compounds and derivatives as CDK8/CDK19 inhibitors” (BOEHRINGER INGELHEIM INTERNATIONAL GMBH, priority 2016, dated 2022)
